Experiments:
[1] = target: Programmed cell death protein 1/Programmed cell death 1 ligand 1 (Homo sapiens, UniProt Q9NZQ7); assay: Inhibition of PD-1/PD-L1 (unknown origin) protein-protein interaction by HTRF assay; format: protein-complex assay
HepG2 = assay: cells; conditions: Homo sapiens, HepG2, 48 h
B16-F10 = assay: cells; conditions: Mus musculus, B16-F10, 48 h
Jurkat = assay: cells; conditions: Homo sapiens, 72 h
MCF7 = assay: cells; conditions: Homo sapiens, MCF7, 48 h
Histone deacetylase 8 = target: T1, Histone deacetylase 8 (Homo sapiens, UniProt Q9BY41); assay: Inhibition of C-terminal His-tagged recombinant full length human HDAC8 extracted from baculovirus infected Sf9 insect cells preincubated for 5 mins followed by substrate addition and measured after 30 mins by fluorescence microplate reader analysis
T1 sequence (Q9BY41 whole entry): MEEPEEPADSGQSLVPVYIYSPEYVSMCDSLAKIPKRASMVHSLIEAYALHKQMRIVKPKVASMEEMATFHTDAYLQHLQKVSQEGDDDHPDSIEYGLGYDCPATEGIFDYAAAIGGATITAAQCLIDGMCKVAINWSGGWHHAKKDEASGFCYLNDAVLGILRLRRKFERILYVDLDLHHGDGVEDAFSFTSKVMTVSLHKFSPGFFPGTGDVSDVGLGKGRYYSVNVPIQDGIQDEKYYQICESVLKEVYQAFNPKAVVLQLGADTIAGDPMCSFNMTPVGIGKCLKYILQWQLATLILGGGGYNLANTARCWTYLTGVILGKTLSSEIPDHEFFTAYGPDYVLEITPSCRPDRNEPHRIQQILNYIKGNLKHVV

Histone deacetylase 7 = target: T2, Histone deacetylase 7 (Homo sapiens, UniProt Q8WUI4); assay: Inhibition of N-terminal GST-tagged recombinant human HDAC7 (501 to 952 residues) extracted from baculovirus expression system using Ac-Leu-Gly-Lys (Tfa)-AMC as substrate preincubated for 5 mins followed by substrate addition and measured after 30 mins by fluorescence microplate reader analysis
T2 sequence (Q8WUI4 whole entry): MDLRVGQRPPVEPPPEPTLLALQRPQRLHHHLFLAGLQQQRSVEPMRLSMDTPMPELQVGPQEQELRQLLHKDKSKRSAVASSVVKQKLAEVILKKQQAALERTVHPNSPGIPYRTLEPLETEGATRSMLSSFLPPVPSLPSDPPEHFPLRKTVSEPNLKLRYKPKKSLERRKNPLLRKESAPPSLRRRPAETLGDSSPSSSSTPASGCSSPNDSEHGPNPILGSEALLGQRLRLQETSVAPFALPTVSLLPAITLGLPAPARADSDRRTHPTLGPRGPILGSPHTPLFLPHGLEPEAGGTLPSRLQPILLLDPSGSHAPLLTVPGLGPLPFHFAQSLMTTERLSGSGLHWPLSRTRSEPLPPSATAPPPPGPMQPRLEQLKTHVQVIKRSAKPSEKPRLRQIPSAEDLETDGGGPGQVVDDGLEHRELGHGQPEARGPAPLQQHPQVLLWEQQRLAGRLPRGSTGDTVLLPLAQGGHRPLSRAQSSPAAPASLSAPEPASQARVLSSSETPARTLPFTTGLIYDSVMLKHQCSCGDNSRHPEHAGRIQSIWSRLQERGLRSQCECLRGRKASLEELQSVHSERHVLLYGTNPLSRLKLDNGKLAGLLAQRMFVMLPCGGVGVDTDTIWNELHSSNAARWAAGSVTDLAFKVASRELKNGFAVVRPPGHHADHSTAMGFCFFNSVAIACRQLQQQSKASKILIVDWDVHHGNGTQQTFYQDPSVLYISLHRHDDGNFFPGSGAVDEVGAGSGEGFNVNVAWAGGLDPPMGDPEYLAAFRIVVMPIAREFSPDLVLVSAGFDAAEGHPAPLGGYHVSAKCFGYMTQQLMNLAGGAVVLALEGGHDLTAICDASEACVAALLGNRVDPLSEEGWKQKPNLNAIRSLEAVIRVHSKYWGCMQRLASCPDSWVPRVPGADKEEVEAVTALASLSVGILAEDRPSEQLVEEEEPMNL

[2] = target: T3, Protein deacetylase HDAC6 (Homo sapiens) (UniProt Q9UBN7); conditions: Sf9, dose 100.0 nM, time 30.0 min
T3 sequence (whole entry): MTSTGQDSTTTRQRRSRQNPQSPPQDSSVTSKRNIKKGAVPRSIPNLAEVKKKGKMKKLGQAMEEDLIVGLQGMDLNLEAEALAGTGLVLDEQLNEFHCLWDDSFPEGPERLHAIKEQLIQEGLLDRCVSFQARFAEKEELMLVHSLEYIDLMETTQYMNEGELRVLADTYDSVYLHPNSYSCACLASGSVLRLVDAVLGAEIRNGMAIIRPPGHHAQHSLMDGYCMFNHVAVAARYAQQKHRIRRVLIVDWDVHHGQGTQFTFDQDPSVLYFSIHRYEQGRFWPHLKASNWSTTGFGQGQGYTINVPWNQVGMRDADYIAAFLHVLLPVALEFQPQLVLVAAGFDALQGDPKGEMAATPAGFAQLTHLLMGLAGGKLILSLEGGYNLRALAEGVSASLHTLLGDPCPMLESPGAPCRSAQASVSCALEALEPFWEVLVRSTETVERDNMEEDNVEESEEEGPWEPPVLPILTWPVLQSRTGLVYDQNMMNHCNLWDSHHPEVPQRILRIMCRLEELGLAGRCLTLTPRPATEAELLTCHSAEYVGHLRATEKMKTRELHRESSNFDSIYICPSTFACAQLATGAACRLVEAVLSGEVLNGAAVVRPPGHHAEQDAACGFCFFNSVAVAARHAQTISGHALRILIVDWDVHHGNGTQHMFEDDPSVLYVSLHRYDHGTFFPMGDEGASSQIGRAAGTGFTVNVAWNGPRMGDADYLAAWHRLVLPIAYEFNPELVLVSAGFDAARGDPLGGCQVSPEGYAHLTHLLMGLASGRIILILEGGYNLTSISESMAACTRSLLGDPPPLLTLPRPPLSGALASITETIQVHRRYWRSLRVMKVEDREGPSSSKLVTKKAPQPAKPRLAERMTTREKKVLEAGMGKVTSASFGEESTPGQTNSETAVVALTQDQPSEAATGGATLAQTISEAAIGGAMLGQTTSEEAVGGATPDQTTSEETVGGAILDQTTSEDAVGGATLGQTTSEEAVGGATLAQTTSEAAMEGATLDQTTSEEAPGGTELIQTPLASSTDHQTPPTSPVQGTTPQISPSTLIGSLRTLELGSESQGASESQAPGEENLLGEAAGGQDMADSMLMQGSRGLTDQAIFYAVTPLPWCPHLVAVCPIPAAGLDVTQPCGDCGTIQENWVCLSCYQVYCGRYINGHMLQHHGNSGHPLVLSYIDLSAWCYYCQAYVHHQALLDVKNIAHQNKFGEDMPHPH

Sequence of Programmed cell death protein 1/Programmed cell death 1 ligand 1 (Q15116 whole entry): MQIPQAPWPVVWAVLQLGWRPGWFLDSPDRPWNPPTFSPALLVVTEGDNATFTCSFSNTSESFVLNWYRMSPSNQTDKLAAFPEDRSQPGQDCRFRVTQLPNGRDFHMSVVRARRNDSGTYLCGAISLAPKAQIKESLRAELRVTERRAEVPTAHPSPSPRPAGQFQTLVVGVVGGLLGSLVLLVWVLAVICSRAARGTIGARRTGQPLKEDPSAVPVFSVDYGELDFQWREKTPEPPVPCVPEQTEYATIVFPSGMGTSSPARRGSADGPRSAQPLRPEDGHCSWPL
Sequence of Programmed cell death protein 1/Programmed cell death 1 ligand 1 (Q9NZQ7 whole entry): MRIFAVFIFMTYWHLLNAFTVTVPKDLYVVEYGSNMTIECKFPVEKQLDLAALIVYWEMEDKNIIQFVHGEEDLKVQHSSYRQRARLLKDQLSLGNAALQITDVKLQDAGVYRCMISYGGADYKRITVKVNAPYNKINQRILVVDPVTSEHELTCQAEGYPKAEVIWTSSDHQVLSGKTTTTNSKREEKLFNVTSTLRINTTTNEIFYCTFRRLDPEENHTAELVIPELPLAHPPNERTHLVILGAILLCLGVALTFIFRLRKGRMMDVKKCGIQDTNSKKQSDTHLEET

COc1nc(-c2cccc(-c3ccccc3)c2C)ccc1CNc1ccc(C(=O)NO)s1
IC50 [1]: 100 nM

COc1nc(-c2cccc(-c3ccccc3)c2C)ccc1CNCCCC(=O)Nc1ccccc1N
IC50 (HepG2): > 10000 nM | IC50 (B16-F10): 9820 nM | IC50 (Jurkat): 7570 nM | IC50 [1]: 83.7 nM | IC50 (MCF7): > 10000 nM

COc1nc(OCc2cccc(-c3ccccc3)c2C)ccc1CNCCCCCC(=O)NO
IC50 [1]: 68.3 nM

COc1nc(-c2cccc(-c3ccccc3)c2C)ccc1CNCCCC(=O)NO
IC50 (Histone deacetylase 8): > 10000 nM | IC50 [1]: 20.8 nM | IC50 (Histone deacetylase 7): > 100000 nM

COc1nc(-c2cccc(-c3ccccc3)c2C)ccc1CNc1ccc(CC(=O)Nc2ccccc2N)cc1
IC50 [1]: 100 nM | inhibition [2]: < 10%

COc1nc(OCc2cccc(-c3ccccc3)c2C)ccc1CNCC(=O)NO
IC50 [1]: 93.5 nM | inhibition [2]: < 10%

COc1nc(OCc2cccc(-c3ccccc3)c2C)ccc1CN1CCCC1C(=O)Nc1ccccc1N (stereo not drawn)
IC50 [1]: > 1000 nM

COc1nc(OCc2cccc(-c3ccccc3)c2C)ccc1CNc1ccc(CC(=O)NO)cc1
IC50 [1]: 100 nM

COc1nc(OCc2cccc(-c3ccccc3)c2C)ccc1CNCCCC(=O)NO
IC50 [1]: > 1000 nM

COc1nc(-c2cccc(-c3ccccc3)c2C)ccc1CNC1(C(=O)Nc2ccccc2N)CCCC1
IC50 [1]: > 1000 nM | inhibition [2]: < 13.5%

COc1nc(OCc2cccc(-c3ccccc3)c2C)ccc1CNCCCCCCC(=O)NO
IC50 (HepG2): > 10000 nM | IC50 (B16-F10): > 10000 nM | IC50 (Histone deacetylase 8): > 10000 nM | IC50 (Jurkat): > 10000 nM | IC50 [1]: 59.2 nM | IC50 (MCF7): > 10000 nM | IC50 (Histone deacetylase 7): > 100000 nM

COc1nc(-c2cccc(-c3ccccc3)c2C)ccc1CNC1CCC(C(=O)Nc2ccccc2N)CC1 (stereo not drawn)
IC50 [1]: > 1000 nM | inhibition [2]: < 13.5%

COc1nc(-c2cccc(-c3ccccc3)c2C)ccc1CNCCCCCC(=O)NO
IC50 (HepG2): > 10000 nM | IC50 (B16-F10): > 10000 nM | IC50 (Jurkat): > 10000 nM | IC50 [1]: 69.4 nM | IC50 (MCF7): > 10000 nM | IC50 (Histone deacetylase 7): > 100000 nM

COc1nc(OCc2cccc(-c3ccccc3)c2C)ccc1CNCCCCCCC(=O)Nc1ccccc1N
IC50 [1]: 83.6 nM

COc1nc(OCc2cccc(-c3ccccc3)c2C)ccc1CNc1ccc(C(=O)Nc2ccccc2N)cc1
IC50 [1]: > 1000 nM

COc1nc(OCc2cccc(-c3ccccc3)c2C)ccc1CNc1cc(C(=O)NO)c[nH]1
IC50 [1]: 87.6 nM

CCCC[C@@H](NCc1ccc(OCc2cccc(-c3ccccc3)c2C)nc1OC)C(=O)Nc1ccccc1N
IC50 [1]: 100 nM | inhibition [2]: < 10%

COc1nc(OCc2cccc(-c3ccccc3)c2C)ccc1CN1CCC(C(=O)Nc2ccccc2N)C1 (stereo not drawn)
IC50 [1]: 72.2 nM

COc1nc(-c2cccc(-c3ccccc3)c2C)ccc1CNCCCCC(=O)NO
IC50 (HepG2): 9700 nM | IC50 (B16-F10): > 10000 nM | IC50 (Histone deacetylase 8): > 10000 nM | IC50 (Jurkat): > 10000 nM | IC50 [1]: 79.2 nM | IC50 (MCF7): > 10000 nM | IC50 (Histone deacetylase 7): > 100000 nM

COc1nc(-c2cccc(-c3ccccc3)c2C)ccc1CNc1cc(C(=O)NO)c[nH]1
IC50 [1]: 100 nM | inhibition [2]: < 10%

COc1nc(OCc2cccc(-c3ccccc3)c2C)ccc1CNC(C)(C)C(=O)NO
IC50 [1]: > 1000 nM | inhibition [2]: < 10%

COc1nc(OCc2cccc(-c3ccccc3)c2C)ccc1CNC(C)(C)CC(=O)Nc1ccccc1N
IC50 [1]: 90.6 nM | inhibition [2]: < 10%

COc1nc(-c2cccc(-c3ccccc3)c2C)ccc1CN1CCC(C(=O)Nc2ccccc2N)C1 (stereo not drawn)
IC50 [1]: 99 nM

COc1nc(-c2cccc(-c3ccccc3)c2C)ccc1CN1CCC(C(=O)Nc2ccccc2N)CC1
IC50 [1]: 100 nM | inhibition [2]: < 10%

COc1nc(OCc2cccc(-c3ccccc3)c2C)ccc1CNC1CCC(C(=O)Nc2ccccc2N)CC1 (stereo not drawn)
IC50 [1]: > 1000 nM | inhibition [2]: < 10%

COc1nc(OCc2cccc(-c3ccccc3)c2C)ccc1CNc1ccc(C(=O)NO)cc1
IC50 [1]: 100 nM

COc1nc(OCc2cccc(-c3ccccc3)c2C)ccc1CNc1cccc(C(=O)NO)c1
IC50 [1]: 100 nM

COc1nc(-c2cccc(-c3ccccc3)c2C)ccc1CNc1ccc(CC(=O)NO)cc1
IC50 [1]: 64.3 nM

CCCC[C@@H](NCc1ccc(-c2cccc(-c3ccccc3)c2C)nc1OC)C(=O)Nc1ccccc1N
IC50 [1]: > 1000 nM | inhibition [2]: < 13.5%

COc1nc(-c2cccc(-c3ccccc3)c2C)ccc1Cn1ccc(C(=O)Nc2ccccc2N)c1
IC50 [1]: 85.2 nM

COc1nc(OCc2cccc(-c3ccccc3)c2C)ccc1CNCCCCCC(=O)Nc1ccccc1N
IC50 [1]: 96.3 nM

COc1nc(-c2cccc(-c3ccccc3)c2C)ccc1CNc1ccc2cc(C(=O)Nc3ccccc3N)ccc2c1
IC50 [1]: > 1000 nM

Nc1ccccc1NC(=O)c1ccc(CNC(=O)OCc2cccnc2)cc1
inhibition [2]: < 10%

COc1nc(-c2cccc(-c3ccccc3)c2C)ccc1CNc1cccc(C(=O)Nc2ccccc2N)c1
IC50 [1]: > 1000 nM | inhibition [2]: < 10%

COc1nc(-c2cccc(-c3ccccc3)c2C)ccc1CNCCCCC(=O)Nc1ccccc1N
IC50 [1]: 100 nM

CCC[C@@H](NCc1ccc(OCc2cccc(-c3ccccc3)c2C)nc1OC)C(=O)Nc1ccccc1N
IC50 [1]: 97.5 nM | inhibition [2]: < 10%

COc1nc(-c2cccc(-c3ccccc3)c2C)ccc1CNCCC(=O)NO
IC50 [1]: 67.6 nM

COc1nc(-c2cccc(-c3ccccc3)c2C)ccc1CNCCCCCCC(=O)Nc1ccccc1N
IC50 [1]: 100 nM

CC[C@@H](NCc1ccc(OCc2cccc(-c3ccccc3)c2C)nc1OC)C(=O)Nc1ccccc1N
IC50 [1]: 100 nM | inhibition [2]: < 10%

COc1nc(-c2cccc(-c3ccccc3)c2C)ccc1CNc1ccc(C(=O)Nc2ccccc2N)s1
IC50 [1]: 100 nM | inhibition [2]: < 10%

COc1nc(-c2cccc(-c3ccccc3)c2C)ccc1CNCCCCCC(=O)Nc1ccccc1N
IC50 [1]: 88 nM

COc1nc(-c2cccc(-c3ccccc3)c2C)ccc1CN1CCN(C(=O)NO)CC1
IC50 [1]: 100 nM | inhibition [2]: < 10%

CC[C@@H](NCc1ccc(-c2cccc(-c3ccccc3)c2C)nc1OC)C(=O)Nc1ccccc1N
IC50 [1]: > 1000 nM | inhibition [2]: < 13.5%
